Patent US20230321171A1, “ANTI-COCCIDIAL COMPOSITION COMPRISING MANGOSTEEN AND USES THEREOF” (CJ CHEILJEDANG CORPORATION, priority 2020, published 2023)

Legend:
Eimeria acervulina = assay: Protozoan (sporozoite) direct killing ability, Eimeria acervulina; assay type: cell-based; conditions: for Eimeria acervulina protozoal death rate (%): compared to PBS-treated negative control group; for Minimum concentration for killing 100% protozoa (ppm), Eimeria acervulina: tested 1 to 500 ppm
Protocol: (§1) In the present example, protozoan (sporozoite) direct killing ability evaluation was conducted against 3 representative Eimeria kinds known to be infected in most farms (E. tenella, E. acervulina, E. maxima).
(§2) A certain amount of oocysts of each protozoan was put in a tube containing glass beads and pulverized, and then to remove the crushed oocyst cell wall and other debris, internal sporocysts were purified using the percoll density gradient, and washed with PBS solution. A reagent comprising sodium taurocholic acid (Sigma aldrich, USA) and trypsin (Gibco, USA), respectively, was treated to sporocysts of Eimeria tenella, Eimeria acervulina and Eimeria maxima for excystation and they were incubated, and then they were washed with PBS solution once and protozoa were obtained.
(§3) After reacting the mangosteen pericarp extract, epicatechin, alpha-mangostin, xanthone and anticoccidial agents, salinomycin and diclazuril (hereinafter, material) with 3 kinds of Eimeria protozoa at various concentrations of 1 to 500 ppm, respectively, only alive protozoa (sporozoites) were counted through microscopic observation. Then, the death rate (%) of the protozoa when each material was treated compared to the PBS-treated negative control group was calculated and shown in Table 8 to Table 10 and Table 12, respectively, and the minimum concentration which directly killed the protozoa by 100% was shown in Table 11 below.

Eimeria tenella [1] = assay: Protozoan (sporozoite) direct killing ability, Eimeria tenella; assay type: cell-based; conditions: for Eimeria tenella protozoal death rate (%): compared to PBS-treated negative control group; for Minimum concentration for killing 100% protozoa (ppm), Eimeria tenella: tested 1 to 500 ppm; for Eimeria tenella protozoal death rate: Table 12 comparison with individual components
Protocol: as §1, §2, §3

Eimeria maxima = assay: Protozoan (sporozoite) direct killing ability, Eimeria maxima; assay type: cell-based; conditions: for Eimeria maxima protozoal death rate (%): compared to PBS-treated negative control group; for Minimum concentration for killing 100% protozoa (ppm), Eimeria maxima: tested 1 to 500 ppm
Protocol: as §1, §2, §3

[2] = test system: MDBK(Madin-Darby Bovine Kidney Epithelial Cells); assay: Cytotoxicity, MTS analysis, MDBK; conditions: 3.1~500 ppm/well, 14 hours + 2 hours MTS, vs 5% DMSO treatment group
From the text: (§4) In the present example, using MTS analysis method (3-(4,5-[…])-5-(3-carboxymethoxyphenyl)-2-(4-sulfophenyl)-2H-tetrazolium, promega, USA), an effect on survival of cells of the mangosteen extract was investigated.
(§5) The cell lines utilized in cytotoxicity evaluation were (1) MDBK(Madin-Darby Bovine Kidney Epithelial Cells) and (2) RAW264.7(Mouse macrophage cell), and all of them were purchased from ATCC and used.
(§6) Each cell was aliquoted at a concentration of 1×10^5 cell/well in a 96-well cell culture plate, and cultured at 37° C. for 24 hours, and then each material (mangosteen extract, xanthone, alpha-mangostin and epicatechin) was treated by concentration (3.1˜500 ppm/well) and cultured at a temperature of 37° C.

[3] = test system: RAW264.7(Mouse macrophage cell); assay: Cytotoxicity, MTS analysis, RAW264.7; conditions: 3.1~500 ppm/well, 14 hours + 2 hours MTS, vs 5% DMSO treatment group
From the text: as §4, §5, §6

Eimeria tenella [4] = assay: Protozoan (sporozoite) direct killing ability, Eimeria tenella; assay type: cell-based; conditions: Table 15, method similar to Example 2-1
Eimeria tenella [5] = assay: In vivo anticoccidial efficacy evaluation in broilers challenge-inoculated with Eimeria tenella; parameters: species or system Ross broilers
Protocol: An in vivo anticoccidial efficacy evaluation test was performed in an animal experiment facility in Gyeongsangnam-do, South Korea. One-day-old female Ross broilers were individually weighed and randomly divided into groups to use in an experiment. Matters and conditions for experimental design were described in Table 2.
(§7) A breeding farm was managed according to the Korean poultry breeding management guidelines. Cages and the breeding farm were cleaned and disinfected before starting the test. The temperature of […] and the humidity of 40 to 50% of the breeding farm were maintained, and it was continuously monitored.
(§8) For the feed, Korea Feed Al-choi product was used, and each material (salinomycin (Cheil Bio Cheilsalino-60 product), xanthone (Sigma Aldrich X600 product), and the mangosteen extract prepared in Example 1-2 above) was added to the feed, respectively, at a concentration described in Table 3 below to be self-mixed. Antibiotics and supplements were not used in general feed and mixed feed, and no anticoccidial agent other than each material was added. Broilers were fed ad libitum throughout the experiment period. After putting 20 1-day-age broilers in cages randomly placed for each of the control group or test group and breeding, general feed was fed for 7 days, and then the mixed feed prepared above was ingested by dividing by control group or test group.
The feed formulation administered to the control group (negative control group or positive control group) and test group and whether coccidiosis was induced by Eimeria tenella were described in Table 3 below. 20 1-day-old broilers were put in a cage randomly arranged for each test group, and after 7 days of feeding the general feed, the formulated feed as described in Table 3 was divided into each test group and ingested.
14-day-old broilers were orally inoculated with 10,000 oocysts (90% sporulated Eimeria tenella oocysts) per individual to induce coccidiosis.
The anticoccidial efficacy by test group designed in Example 1-3 above was shown as an anticoccidial index (ACI), and the anticoccidial index was calculated by Equation 2 below. The ACI score is out of 200 points, and the higher the ACI score, the more excellent the anticoccidial ability, and when it is 120 points or more to less than 140 points, it is determined that it is effective as an anticoccidial material, and when it is 140 points or more to less than 160 points, it is determined that it is excellent as an anticoccidial material, and when it is 160 points or more, it is determined that the anticoccidial effect is very excellent. (Luis Miguel De Pablos et al., Anticoccidial activity of maslinic acid against infection with Eimeria tenella in chickens, Parasitol Res, 2010)
Anticoccidial index (ACI)=(survival rate after challenge inoculation (%))+(daily weight gain compared to negative control group (RWG, %))−(lesion score×10)−(fecal oocyst excretion amount index) (Equation 2)
1) Survival rate: the number of dead individuals was recorded daily, and post mortem autopsy was performed to determine a cause of mortality, and the number of individuals who died due to causes other than coccidiosis was excluded. The survival rate (%) up to the 8th day after challenge inoculation was used for anticoccidial index calculation.
2) Daily weight gain: body weight was measured for each cage before challenge inoculation with a protozoan into an individual and at the 7th day after challenge inoculation, and the difference was divided by the number of days to calculate the daily weight gain (ADG, g/d). ‘Daily weight gain compared to the negative control group (RWG, %)’which was calculated by dividing the daily weight gain (ADG, average daily gain; g/d) of each experimental group by the weight gain (ADG, g/d) of the non-infected negative control group and multiplying by 100 was used for anticoccidial index calculation. […]

[6] = Broiler growth effect (daily weight gain) due to intake in feed; assay type: in vivo, Ross broilers; conditions: formulated feed 60 ppm for 7 days
Protocol: An efficacy evaluation test was performed in an animal experiment facility in Gyeongsangnam-do, South Korea. One-day-old female Ross broilers were individually weighed and randomly divided into groups to use in an experiment. Matters and conditions for experimental design were described in Table 16.
as §7
as §8, with “A1-choi” for “Al-choi”, “17” for “3”, “group. The feed formulation administered to the control group (negative control group or positive control group) and test group was described in Table 17 below.” for “group.”
The body weight before feeding and on the 7th day after feeding the feed of Table 16 above into individuals was measured, and the difference was divided by the number of days to calculate the daily weight gain (ADG, g/d), and the result was shown in Table 18. For comparison between 6 treatment groups, Duncan post-test multiple comparison method was used, and statistical significance was verified using a SAS statistical program, and the result was shown in Table 18.

Compound	Eimeria acervulina protozoal death rate (%) (Eimeria acervulina; 1 ppm)	Eimeria acervulina protozoal death rate (%) (Eimeria acervulina; 5 ppm)	Eimeria acervulina protozoal death rate (%) (Eimeria acervulina; 10 ppm)	Eimeria acervulina protozoal death rate (%) (Eimeria acervulina; 50 ppm)	Eimeria acervulina protozoal death rate (%) (Eimeria acervulina; 100 ppm)	Eimeria acervulina protozoal death rate (%) (Eimeria acervulina; 125 ppm)	Eimeria acervulina protozoal death rate (%) (Eimeria acervulina; 250 ppm)	Eimeria acervulina protozoal death rate (%) (Eimeria acervulina; 500 ppm)	Minimum concentration for killing 100% protozoa (ppm), Eimeria acervulina (Eimeria acervulina) [ppm]	Eimeria tenella protozoal death rate (%) (Eimeria tenella [1]; 1 ppm)	Eimeria tenella protozoal death rate (%) (Eimeria tenella [1]; 5 ppm)	Eimeria tenella protozoal death rate (%) (Eimeria tenella [1]; 10 ppm)	Eimeria tenella protozoal death rate (%) (Eimeria tenella [1]; 50 ppm)	Eimeria tenella protozoal death rate (%) (Eimeria tenella [1]; 100 ppm)	Eimeria tenella protozoal death rate (%) (Eimeria tenella [1]; 125 ppm)	Eimeria tenella protozoal death rate (%) (Eimeria tenella [1]; 250 ppm)	Eimeria tenella protozoal death rate (%) (Eimeria tenella [1]; 500 ppm)	Minimum concentration for killing 100% protozoa (ppm), Eimeria tenella (Eimeria tenella [1]) [ppm]	Eimeria maxima protozoal death rate (%) (Eimeria maxima; 1 ppm)	Eimeria maxima protozoal death rate (%) (Eimeria maxima; 5 ppm)	also measured
N#CC(c1ccc(Cl)cc1)c1c(Cl)cc(-n2ncc(=O)[nH]c2=O)cc1Cl (centres unmarked) [Diclazuril, diclazuril]	0	0	0	0	0	23	12	44	500	0	0	0	0	0	0	35	44	>500	0	0	Eimeria maxima protozoal death rate (%) (Eimeria maxima; 10 ppm): 0%; Eimeria maxima protozoal death rate (%) (Eimeria maxima; 50 ppm): 0%; Eimeria maxima protozoal death rate (%) (Eimeria maxima; 100 ppm): 0%; Eimeria maxima protozoal death rate (%) (Eimeria maxima; 125 ppm): 0%; Eimeria maxima protozoal death rate (%) (Eimeria maxima; 250 ppm): 16%; Eimeria maxima protozoal death rate (%) (Eimeria maxima; 500 ppm): 30%; Minimum concentration for killing 100% protozoa (ppm), Eimeria maxima (Eimeria maxima): >500 ppm
COc1c(O)cc2oc3cc(O)c(CC=C(C)C)c(O)c3c(=O)c2c1CC=C(C)C [Alpha-mangostin, alpha-mangostin]																					Eimeria tenella protozoal death rate (Eimeria tenella [1]; 3.9 ppm): 23.3%; Eimeria tenella protozoal death rate (Eimeria tenella [1]; 7.8 ppm): 50%; Eimeria tenella protozoal death rate (Eimeria tenella [1]; 15.6 ppm): 93.3%; Minimum concentrataion of cytotoxicity at which cells of 50% or more survive (ppm) [2]: ≥7.8 ppm; Minimum concentrataion of cytotoxicity at which cells of 50% or more survive (ppm) [3]: ≥15.6 ppm; Minimum concentrataion of killing protozoa 100% (ppm) (Eimeria tenella [4]): ≥31.3 ppm
CC[C@@H](C(=O)[C@@H](C)[C@@H](O)[C@H](C)[C@@H]1O[C@@H]([C@@H](CC)C(=O)O)CC[C@@H]1C)[C@H]1O[C@]2(C=C[C@@H](O)[C@]3(CC[C@@](C)([C@H]4CC[C@](O)(CC)[C@H](C)O4)O3)O2)[C@H](C)C[C@@H]1C [Salinomycin, salinomycin]	0	0	0	0	60	73	100	100	250	0	0	0	0	46	74	100	100	500	0	0	Intermediate body weight (14-day-old, before challenge inoculation) (Eimeria tenella [5]; formulated feed 60 ppm from day 7, female Ross broilers): 455.9; Appendix lesion score (Eimeria tenella [5]; formulated feed 60 ppm, 8th day after challenge inoculation, scale of 0-4): 2.7; End body weight (21-day-old, on the 7th day of challenge inoculation) (Eimeria tenella [5]; formulated feed 60 ppm, 10,000 E. tenella oocysts oral at 14 days): 917.6; Day 14~Day 21 ADG (daily weight gain) (Eimeria tenella [5]; formulated feed 60 ppm, E. tenella infected broilers): 62.46 g/day; Anticoccidial index (ACI) (Eimeria tenella [5]; formulated feed 60 ppm, Equation 2, out of 200 points): 141; Oocyst excretion amount/gram (Eimeria tenella [5]; formulated feed 60 ppm, feces of 6~8th day of challenge inoculation, McMaster chamber): 1.30E+08 /gram; RWG (daily weight gain compared to the negative control group) (Eimeria tenella [5]; formulated feed 60 ppm, relative to non-infected negative control group): 94%; Eimeria maxima protozoal death rate (%) (Eimeria maxima; 10 ppm): 0%; Eimeria maxima protozoal death rate (%) (Eimeria maxima; 50 ppm): 0%; Eimeria maxima protozoal death rate (%) (Eimeria maxima; 100 ppm): 59%; Eimeria maxima protozoal death rate (%) (Eimeria maxima; 125 ppm): 65%; Eimeria maxima protozoal death rate (%) (Eimeria maxima; 250 ppm): 97%; Eimeria maxima protozoal death rate (%) (Eimeria maxima; 500 ppm): 100%; Minimum concentration for killing 100% protozoa (ppm), Eimeria maxima (Eimeria maxima): 500 ppm; Daily weight gain (ADG) [6]: 46.86 g/day; End-initial body weight (7 days, g) [6]: 328 g; End body weight ([6]; non-infected broilers): 526 g
Oc1cc(O)c2c(c1)O[C@H](c1ccc(O)c(O)c1)[C@H](O)C2 [Epicatechin, epicatechin]																					Eimeria tenella protozoal death rate (Eimeria tenella [1]; 3.9 ppm): 0%; Eimeria tenella protozoal death rate (Eimeria tenella [1]; 7.8 ppm): 0%; Eimeria tenella protozoal death rate (Eimeria tenella [1]; 15.6 ppm): 0%; Minimum concentrataion of killing protozoa 100% (ppm) (Eimeria tenella [4]): ≥500 ppm
